{
  "source": "patent US9676798B2",
  "about": "“Cationic oligonucleotides, automated methods for preparing same and their uses” (CENTRE NATIONAL DE LA RECHERCHE SCIENTIFIQUE (CNRS), priority 2005, dated 2017)",
  "test_system": "Hela cells",
  "assay": "Penetration of cationic oligonucleotides into cells (fluorescence microscopy, propidium iodide)",
  "assay_type": "cell-based",
  "conditions": "for Cell fluorescence after incubation (penetration into cells): 2 μM, four hours, serum-free MEM, no carrier",
  "description": "Hela cells, grown in 10% (v/v) fetal calf serum containing MEM medium, were plated at 50-60×10^3 cells/well into 4-well chambered borosilicate Lab-Tek dishes one day prior to the experiment. Complete medium was replaced by 0.5 ml serum-free MEM medium. A 5′-cationic fluorescein-conjugated oligonucleotide F—S18N19 (where N19 is TCGAAGTACTCAGCGTAAG (SEQ ID NO:7)) formulation was prepared in sterile PBS. It was added to the cells to a final concentration of 2 μM. Four hours later, the medium was replaced by 1 ml of fresh serum-containing medium. A first picture was taken with a Zeiss axiovert 25 fluorescence microscope, equipped with a FITC filter (FIG. 14A, left). […] After 24 h, the medium was replaced with 1 ml of phenol red-free MEM medium. Propidium iodide (1 mM in water) was added to a final concentration of 10 μM.",
  "data": [
    {"substance": "F—N19: control fluorescein oligonucleotide without spermine, N19 is TCGAAGTACTCAGCGTAAG (5' fluorescein conjugate, no spermine, further chemistry not given here) [reference compound]", "values": [
      {"measurement": "Cell fluorescence after incubation (penetration into cells)", "value": "no fluorescence"}
    ]},
    {"substance": "F—S18N19: 5′-cationic fluorescein-conjugated oligonucleotide, N19 is TCGAAGTACTCAGCGTAAG, 18 spermine residues (5' fluorescein and 18 spermine residues attached, backbone chemistry not given here)", "values": [
      {"measurement": "Cell fluorescence after incubation (penetration into cells)", "value": "All cells became fluorescent"},
      {"measurement": "Propidium iodide exclusion and retained fluorescence", "setting": "after 24 h, propidium iodide 10 μM", "value": "majority of propidiumless healthy cells that were still fluorescent"}
    ]}
  ]
}
